In patent US20230021483A1, “[…] […] METHOD AND CLASSIFICATION OF PHARMACEUTICAL COMPONENTS BY USING TRANSCRIPTOMES” (National Institutes of Biomedical Innovation, Health and …, priority 2016, published 2023):

Columns and labels:
Type in all cases: in vivo, C57BL/6 mice
[1] = system: preferentially upregulated genes in LV, SP, LN; assay: Z-score-based differential gene expression analysis (adjuvant group- or adjuvant-associated genes, 40 module mapping, TargetMine annotation); conditions: for Stat1 1450033_a_at (Group G1, Modules 20) / Stat1 1450034_at (Group G1, Modules 20) / Tdrd7 1426716_at (Group G1, Modules 20) / Tor1aip2 1418115_s_at (Group G1, Modules 20) / Tor1aip2 1418116_at (Group G1, Modules 20) / Tor1aip2 1435526_at (Group G1, Modules 20) / Trim12a 1437432_a_at (Group G1, Modules 20) / Uba7 1426970_a_at (Group G1, Modules 20) / Adar 1425405_a_at (Group G1, Modules 20) / Adar 1434268_at (Group G1, Modules 20) / Ddx58 1436562_at (Group G1, Modules 20) / Ddx58 1456890_at (Group G1, Modules 20) / Eif2ak2 1422005_at (Group G1, Modules 20) / G3bp2 1421323_a_at (Group G1, Modules 20) / Gm9706///Isg15 1431591_s_at (Group G1, Modules 20) / H2-T10///H2-T22///H2-T9 1449875_s_at (Group G1, Modules 20) / Ifih1 1426276_at (Group G1, Modules 20) / Ifit1 1450783_at (Group G1, Modules 20) / Ifit3 1449025_at (Group G1, Modules 20) / Irf7 1417244_a_at (Group G1, Modules 20) / Irgm1 1418825_at (Group G1, Modules 20) / Mndal 1426906_at (Group G1, Modules 20) / Pml 1448757_at (Group G1, Modules 20) / Pml 1456103_at (Group G1, Modules 20) / Rnf213 1455500_at (Group G1, Modules 20) / Rsad2 1436058_at (Group G1, Modules 20) / Shisa5 1423986_a_at (Group G1, Modules 20) / Shisa5 1437503_a_at (Group G1, Modules 20): ID, LV
Summary of the method: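 Gene groups for each organ were built from combined z-score cutoffs across adjuvants, ranging from z>1 to z>3. Scores came from fold changes standardized per gene over the whole organ data set, with the three replicate z-scores added per adjuvant; sums above 3 marked preferential expression.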

[2] = system: inguinal lymph nodes (LN); assay: Whole organ transcriptome (GeneChip microarray) of draining inguinal lymph nodes 6 h after adjuvant administration: sDEGs, gene modules, hierarchical clustering; for adjuvant group (cluster) in LN: key: G1 (interferon signaling); G2 (metabolism of lipids and lipoproteins); G3 (response to stress); G4 (response to wounding); G5 (phosphate-containing compound metabolic process); G6 (phagosome)
[3] = system: LV, SP and LNs; assay: Whole organ transcriptome across organs (adjuvant gene space): gene responses and adjuvant grouping; conditions: hierarchical clustering; LV, SP and/or LNs

Structure (SMILES): Nc1nc2c(ncn2[C@@H]2O[C@@H]3COP(=O)(O)O[C@H]4[C@@H](O)[C@H](n5cnc6c(N)ncnc65)O[C@@H]4COP(=O)(O)O[C@@H]2[C@@H]3O)c(=O)[nH]1 [cGAMP, Cyclic [G(2′,5′)pA(3′,5′)p]]
- Stat1 1450033_a_at (Group G1, Modules 20) ([1]; sample x1): 3.11
- Stat1 1450034_at (Group G1, Modules 20) ([1]; sample x1): 2.46
- Tdrd7 1426716_at (Group G1, Modules 20) ([1]; sample x1): 2.18
- Tor1aip2 1418115_s_at (Group G1, Modules 20) ([1]; sample x1): 2.9
- Tor1aip2 1418116_at (Group G1, Modules 20) ([1]; sample x1): 2.41
- Tor1aip2 1435526_at (Group G1, Modules 20) ([1]; sample x1): 2.32
- Trim12a 1437432_a_at (Group G1, Modules 20) ([1]; sample x1): 2.07
- Uba7 1426970_a_at (Group G1, Modules 20) ([1]; sample x1): 2.06
- Adar 1425405_a_at (Group G1, Modules 20) ([1]; sample x2): 2.38
- Adar 1434268_at (Group G1, Modules 20) ([1]; sample x2): 1.71
- Ddx58 1436562_at (Group G1, Modules 20) ([1]; sample x2): 2.13
- Ddx58 1456890_at (Group G1, Modules 20) ([1]; sample x2): 2.28
- Eif2ak2 1422005_at (Group G1, Modules 20) ([1]; sample x2): 2.21
- G3bp2 1421323_a_at (Group G1, Modules 20) ([1]; sample x2): 2.6
- Gm9706///Isg15 1431591_s_at (Group G1, Modules 20) ([1]; sample x2): 1.62
- H2-T10///H2-T22///H2-T9 1449875_s_at (Group G1, Modules 20) ([1]; sample x2): 1.8
- Ifih1 1426276_at (Group G1, Modules 20) ([1]; sample x2): 1.62
- Ifit1 1450783_at (Group G1, Modules 20) ([1]; sample x2): 2.63
- Ifit3 1449025_at (Group G1, Modules 20) ([1]; sample x2): 1.95
- Irf7 1417244_a_at (Group G1, Modules 20) ([1]; sample x2): 1.62
- Irgm1 1418825_at (Group G1, Modules 20) ([1]; sample x2): 2.09
- Mndal 1426906_at (Group G1, Modules 20) ([1]; sample x2): 2.11
- Pml 1448757_at (Group G1, Modules 20) ([1]; sample x2): 2.02
- Pml 1456103_at (Group G1, Modules 20) ([1]; sample x2): 1.48
- Rnf213 1455500_at (Group G1, Modules 20) ([1]; sample x2): 2.34
- Rsad2 1436058_at (Group G1, Modules 20) ([1]; sample x2): 1.89
- Shisa5 1423986_a_at (Group G1, Modules 20) ([1]; sample x2): 1.43
- Shisa5 1437503_a_at (Group G1, Modules 20) ([1]; sample x2): 1.63
- Stat1 1450033_a_at (Group G1, Modules 20) ([1]; sample x2): 2.52
- Stat1 1450034_at (Group G1, Modules 20) ([1]; sample x2): 1.97
- Tdrd7 1426716_at (Group G1, Modules 20) ([1]; sample x2): 2.34
- Tor1aip2 1418115_s_at (Group G1, Modules 20) ([1]; sample x2): 2.68
- Tor1aip2 1418116_at (Group G1, Modules 20) ([1]; sample x2): 2.58
- Tor1aip2 1435526_at (Group G1, Modules 20) ([1]; sample x2): 2.28
- Trim12a 1437432_a_at (Group G1, Modules 20) ([1]; sample x2): 1.46
- Uba7 1426970_a_at (Group G1, Modules 20) ([1]; sample x2): 1.28
- Adar 1425405_a_at (Group G1, Modules 20) ([1]; sample x3): 2.37
- Adar 1434268_at (Group G1, Modules 20) ([1]; sample x3): 1.8
- Ddx58 1436562_at (Group G1, Modules 20) ([1]; sample x3): 2.6
- Ddx58 1456890_at (Group G1, Modules 20) ([1]; sample x3): 2.38
- Eif2ak2 1422005_at (Group G1, Modules 20) ([1]; sample x3): 2.73
- G3bp2 1421323_a_at (Group G1, Modules 20) ([1]; sample x3): 2.43
- Gm9706///Isg15 1431591_s_at (Group G1, Modules 20) ([1]; sample x3): 1.73
- H2-T10///H2-T22///H2-T9 1449875_s_at (Group G1, Modules 20) ([1]; sample x3): 2.45
- Ifih1 1426276_at (Group G1, Modules 20) ([1]; sample x3): 1.66
- Ifit1 1450783_at (Group G1, Modules 20) ([1]; sample x3): 2.63
- Ifit3 1449025_at (Group G1, Modules 20) ([1]; sample x3): 2.06
- Irf7 1417244_a_at (Group G1, Modules 20) ([1]; sample x3): 1.62
- Irgm1 1418825_at (Group G1, Modules 20) ([1]; sample x3): 2.14
- Mndal 1426906_at (Group G1, Modules 20) ([1]; sample x3): 2.19
- Pml 1448757_at (Group G1, Modules 20) ([1]; sample x3): 2.49
- Pml 1456103_at (Group G1, Modules 20) ([1]; sample x3): 1.62
- Rnf213 1455500_at (Group G1, Modules 20) ([1]; sample x3): 2.18
- Rsad2 1436058_at (Group G1, Modules 20) ([1]; sample x3): 1.75
- Shisa5 1423986_a_at (Group G1, Modules 20) ([1]; sample x3): 2.36
- Shisa5 1437503_a_at (Group G1, Modules 20) ([1]; sample x3): 2.09
- Stat1 1450033_a_at (Group G1, Modules 20) ([1]; sample x3): 2.85
- Stat1 1450034_at (Group G1, Modules 20) ([1]; sample x3): 2.26
- Tdrd7 1426716_at (Group G1, Modules 20) ([1]; sample x3): 2.5
- Tor1aip2 1418115_s_at (Group G1, Modules 20) ([1]; sample x3): 2.71
- Tor1aip2 1418116_at (Group G1, Modules 20) ([1]; sample x3): 2.68
- Tor1aip2 1435526_at (Group G1, Modules 20) ([1]; sample x3): 2.32
- Trim12a 1437432_a_at (Group G1, Modules 20) ([1]; sample x3): 1.61
- Uba7 1426970_a_at (Group G1, Modules 20) ([1]; sample x3): 1.91
- adjuvant group-associated biological features ([1]; z-score selected genes, TargetMine and IPA upstream cytokine analyses): strongly associated with type I and type II interferon responses
- module M40^LN (immune system process; dendritic cells, macrophages, neutrophils, stromal cells) ([2]; LN, 6 h): strongly induced
- adjuvant group (cluster) in LN ([2]; hierarchical clustering, lymph node): G1
- Number of gene probes with statistically significant changes (sDEGs), LN, Down ([2]; i.d. administration, lymph node, fold change <0.667, p<0.01, customized PA call=1, 6 h after adjuvant): 255
- Number of gene probes with statistically significant changes (sDEGs), LN, Up ([2]; i.d. administration, lymph node, fold change >1.5, p<0.01, customized PA call=1, 6 h after adjuvant): 1135
- adjuvant group (cluster) within the adjuvant gene space [3]: group (G) 1
